From PubChem BioAssay (NCI)
Several values for one entry are separate records, joined by “and”; a condition that tells them apart may be missing. Equal entries are not always repeated.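 Cultured in 96-well plates, cells were exposed to test compound for 48 hours across five concentrations. GI50 marks 50% less growth. TGI marks complete inhibition of growth.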 Where a SMILES comes first, the peptide text is derived from it. [ ]: non-standard residue; d: D form. The star is where a group is joined. NMeF = CN[C@@H](Cc1ccccc1)C(=O)O; NMeV = CN[C@H](C(=O)O)C(C)C; Boc = CC(C)(C)OC(=O)*; OBn = c1ccc(CO*)cc1

What was measured:
Experiment in all cases: inhibition of tumour cell growth, NCI panel, 48 h
NCI-H226 lung = tested on: NCI-H226 lung
TK-10 renal = tested on: TK-10 renal
UACC-62 melanoma = tested on: UACC-62 melanoma
T-47D breast = tested on: T-47D breast
K-562 leukemia = tested on: K-562 leukemia
ACHN renal = tested on: ACHN renal
LOX IMVI melanoma = tested on: LOX IMVI melanoma
M14 melanoma = tested on: M14 melanoma
SF-268 CNS = tested on: SF-268 CNS
U251 CNS = tested on: U251 CNS

| SMILES | GI50 (NCI-H226 lung) [µM] | TGI (NCI-H226 lung) [µM] | GI50 (TK-10 renal) [µM] | TGI (TK-10 renal) [µM] | GI50 (UACC-62 melanoma) [µM] | TGI (UACC-62 melanoma) [µM] | GI50 (T-47D breast) [µM] | TGI (T-47D breast) [µM] | GI50 (K-562 leukemia) [µM] | TGI (K-562 leukemia) [µM] | GI50 (ACHN renal) [µM] | TGI (ACHN renal) [µM] | GI50 (LOX IMVI melanoma) [µM] | TGI (LOX IMVI melanoma) | GI50 (M14 melanoma) [µM] | TGI (M14 melanoma) [µM] | GI50 (SF-268 CNS) [µM] | TGI (SF-268 CNS) [µM] | GI50 (U251 CNS) [µM] | TGI (U251 CNS) [µM] |
| --- | --- | --- | --- | --- | --- | --- | --- | --- | --- | --- | --- | --- | --- | --- | --- | --- | --- | --- | --- | --- |
| CCOC(=O)c1c(Cl)c2c(n1Cc1cccc(OC)c1)-c1oncc1CC2 | 6.82 | > 100 | 6.59 | > 100 | 0.608 | 29.3 | 4.41 | > 100 | 0.397 | > 100 | 4.54 | > 100 | 2.51 | > 100 µM | 2.07 | > 100 | 9.31 | > 100 | 4.75 | > 100 |
| O=C(Nc1ccc(OCc2nnc(-c3ccccc3)o2)c(F)c1)Nc1ccc(Cl)c(C(F)(F)F)c1 | 3.65 | 28.3 | 2.62 | 8.24 | 2.48 | 6.91 | 2.31 | 7.15 | 2.07 | 8.79 | 1.84 | 4.42 | 2.83 | 12.9 µM | 2.97 | 47 | 3.52 | 19.2 | 1.54 | 4.68 |
| COc1cccc(Cn2c(-c3nonc3NC(C)=O)nc3ccccc32)c1 | 5.46 | > 100 | 2.65 | 40.8 | 3.37 | > 100 | 6.17 | > 100 | 4.02 | > 100 | 8.41 | > 100 | 6.1 | > 100 µM | 4.02 | > 100 | 7.82 | > 100 | 3.94 | 35.5 |
| O=C1/C(=C/c2ccccc2F)CN(C(=O)C(Cl)Cl)C/C1=C\c1ccccc1F | 1.4 | 6.85 | 1.61 | 3.02 | 0.378 | 1.08 | 0.71 | 3.97 | < 0.04 | > 100 | 0.327 | 1.09 | 0.11 | 0.297 µM | 0.387 | 1.61 | 0.916 | 3.72 | 0.213 | 0.665 |
| O=C(NC1CCCCC1)NS(=O)(=O)c1ccc(-n2nc3c(c2-c2ccc(Cl)cc2)Cc2ccccc2-3)cc1 | 6.15 | 54.9 | 13.3 | 26.9 | 10.9 | 24 | 49.8 | > 100 | 2.15 | 5.89 | 7.93 | 21 | 1.94 | 4.12 µM | 13.7 | > 100 | 20.1 | 45.6 | 11.7 | 29.7 |
| CC(C)[C@@H](C(=O)N1CCC[C@H]1C(=O)OCc1ccccc1)N(C)C(=O)[C@H](C(C)C)N(C)C(=O)[C@H](Cc1ccccc1)N(C)C(=O)[C@H](NC(=O)OC(C)(C)C)C(C)C (Boc-[dV][NMeF][NMeV][NMeV]P-OBn) |  | > 100 |  | > 100 |  | > 100 |  | > 50 | > 100 | > 100 |  | > 100 | 12.9 | > 50 µM and 26.6 µM | 41.7 | > 100 | > 100 | > 100 |  | > 100 |
